In data set [1] the target is human GLP-1 receptor (hGLP-1R) (Homo sapiens, UniProt P43220). In words: cAMP production (HTRF) in CHO cells expressing hGLP-1R. It is filed as cell-based. On the set-up: expressed in transfected cells. Conditions: for EC50: geometric mean, read-out: hGLP-1R EC50; for % Relative Potency Ratio: % GLP-1R activity relative to GLP-1 / % GlucR activity relative to glucagon. In a few lines: (§1)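 Read-out: HTRF cAMP (anti-cAMP cryptate donor, cAMP-d2 acceptor in conjugate/lysis buffer), converted to % Delta F and fitted by 4-parameter logistic for EC50. Cell densities were 1×10^5 cells/mL (hGLP-1R) or 2×10^5 cells/mL (hGCGR). Stimulation lasted 30 min at room temperature.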
Chain of human GLP-1 receptor (hGLP-1R) (P43220 24-463): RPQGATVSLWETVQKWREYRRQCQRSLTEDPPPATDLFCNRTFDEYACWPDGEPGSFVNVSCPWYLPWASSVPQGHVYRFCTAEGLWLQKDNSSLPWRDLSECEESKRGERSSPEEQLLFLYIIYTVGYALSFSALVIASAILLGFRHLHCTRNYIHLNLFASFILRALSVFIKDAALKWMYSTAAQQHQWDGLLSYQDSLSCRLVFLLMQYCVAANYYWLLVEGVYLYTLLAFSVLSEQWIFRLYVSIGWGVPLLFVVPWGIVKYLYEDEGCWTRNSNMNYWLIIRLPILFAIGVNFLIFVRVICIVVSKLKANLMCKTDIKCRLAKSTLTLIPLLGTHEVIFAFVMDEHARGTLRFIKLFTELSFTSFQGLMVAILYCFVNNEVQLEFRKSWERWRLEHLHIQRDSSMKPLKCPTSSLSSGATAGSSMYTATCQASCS

The nature of data set [2]: Mouse acute food intake study. As to conditions: male C57Bl/6 mice, s.c., dose 10 nmol/kg, cumulative food intake at 24 hr vs vehicle. The class given is in vivo. In a few lines: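 Single-housed male C57Bl/6 mice (8-9 weeks on arrival), chow-fed, acclimated and sham-dosed ≥2 times, were fasted 6-8 h, then given vehicle or peptide subcutaneously at 5 mL/kg 1-2 h before lights out. Food intake was recorded automatically over 48 h and analysed as cumulative intake.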

The nature of data set [3]: Proteolytic resistance to FasSSIF/Pancreatin. The class given is in vitro ADME. Conditions: simulated intestinal fluid. As to the method:
A fresh suspension of FasSSIF/P (Fasted-State Simulated Intestinal Fluid+USP Pancreatin®) was prepared according to that described by Galia, Nicolaides, Hörter, Löbenberg, Reppas and Dressman: Pharm. Res. 15 (1998) 698-705, and USP XL requirements. The resulting preparation was used immediately without storage.
Peptide for evaluation (1.0 mg) was dissolved in pre-warmed FasSSIF without Pancreatin® (200 μL). To this fresh FasSSIF/Pancreatin® (100 μL) was added to initiate potential proteolysis. Following momentary vortexing of the reaction tube the mixture was incubated at 37° C. in a thermostatic water bath for the duration of the experiment. 25 μL aliquot of the co-incubated peptide-enzyme mixture was periodically withdrawn (t=0, 5, 10 15 and 30 min) and quenched immediately by addition to a solution of 10% TFA in 1:1 water/acetonitrile (75 μL) to arrest proteolytic activity. Quenched samples were centrifuged (7800 RPM, 3 mins) to pellet solids and 10 μL aliquots of the supernatant solution were analyzed using analytical RP-HPLC as follows: Analytical RP-HPLC method: Agilent Polaris C8-A column (4.6×100 mm, 3 micron) eluted with a linear binary gradient of 10-90% MeCN (0.1% TFA v/v) in water (0.1% TFA v/v) over either 10 or 15 mins at 1.5 mL min^−1 at 40° C. with detection by UV absorption at 210 nm. Manual integration (AUC) allowed estimation of remaining intact peptide over the time course of the experiment.

For data set [4], the system named is GLP-1R knockout (KO) mice. In words: Glucose change in GLP-1R knockout mice. The class given is in vivo, mouse. Conditions: GLP-1R KO mice, s.c., 120 min vs 0 min. As to the method: (§2) They acclimated for a minimum of ˜1-2 weeks, and mice were sorted into groups (n=4-8/group) based on body weight. On day of study, mice were fasted briefly for 2 hrs prior to study start. In some studies, mice were pre-treated with octreotide (BaChem, 10 mg/kg) at 30 minutes prior to peptide injection. Glucose was measured via glucometer at various timepoints including-30 min (prior to octreotide when used in studies), 0 min (before peptide dose), 30, 60, 120, 180, 240, and 360 minutes. Since these studies are acute in nature, mice were re-used for multiple studies (no more than 3) and always allowed at least a minimum wash-out period of 1 week.

In data set [5] the target is human glucagon receptor (hGCGR) (Homo sapiens, UniProt P47871). In words: cAMP production (HTRF) in CHO cells expressing hGCGR. It is filed as cell-based. On the set-up: expressed in transfected cells. Conditions: geometric mean, read-out: hGluc-R EC50. A digest of the protocol:
as §1

Data set [6] relates to wildtype (WT) mice. Kind of data set: Glucose change in wildtype mice. It is filed as in vivo, mouse. As to conditions: s.c., 120 min vs 0 min. As to the method: as §2, with “GLP-1R knockout (KO) and wildtype (WT) mice at 8-14 weeks of age were singly housed on standard chow diet (Envigo, 2918) and automatic water. They” for “They”
A short description of data set [7]: Proteolytic resistance to FasSSGF containing porcine pancreatic pepsin. It is filed as in vitro ADME. As to conditions: pig, simulated gastric fluid. As to the method:
Stimulated Gastric Fluid (FasSSGF) Containing Porcine Pancreatic Pepsin Lyophilized porcine pancreatic pepsin (Sigma: P7012) was reconstituted to 0.5 mg/mL (˜2500 units/mL) in freshly prepared FasSSGF (Biorelevant media) to give the enzyme stock solution. Peptide stock solution was prepared to a concentration of 250 μM (˜1.0 mg/mL) in FasSSGF. 200 μL ([…], ˜250 units) of pepsin stock solution was added to 200 μL of peptide solution (1.0 mg/mL, ˜100 μg of peptide, ˜25 nmoles) and the mixture was co-incubated in a temperature-regulated incubator at 37° C. for the duration of the experiment. 30 μL aliquot of the peptide-enzyme mixture was periodically withdrawn (t=0, 5, 10, 15, and 30 min) and quenched immediately by addition of 80 μL of 0.1M ammonium bicarbonate solution in water/acetonitrile (4:1, pH 8) to arrest proteolytic activity. 30 μL aliquot was analyzed by analytical RP-HPLC. Analytical RP-HPLC method: Agilent Polaris C8-A column (4.6×100 mm, 3 micron) eluted with a linear binary gradient of 10-90% MeCN (0.1% TFA v/v) in water (0.1% TFA v/v) over either 10 or 15 mins at 1.5 mL min-1 at 40° C. with detection by UV absorption at 210 nm. Manual integration (AUC) allowed estimation of remaining intact peptide over the time course of the experiment.

[8] abbreviates: Table 6, peptides modified at position 17, cAMP in CHO hGLP-1R cells.
Where [9] appears, read: 3 nmol/kg, no somatostatin pretreatment.
Where [10] appears, read: Table 6, peptides modified at position 17, cAMP in CHO hGCGR cells.
[11] abbreviates: 10 nmol/kg, somatostatin pretreatment (octreotide) 30 min prior to cpd.
[12] abbreviates: 30 nmol/kg, somatostatin pretreatment (octreotide) 30 min prior to cpd.

Where two headings read alike, the source gives them in different places. Starred links: 1 amine or outer side, 2 acyl side, 3 side chain; linkers in the order of their positions; H or OH if unused. Non-standard residues stand in square brackets, D forms with d. Residues, ends and D or L forms follow the SMILES beside them. Groups on a side chain read outwards from the residue. *: point of attachment. C20 diacid = O=C(O)CCCCCCCCCCCCCCCCCCC(=O)*; Dip = N[C@H](C(=O)O)C(c1ccccc1)c1ccccc1; γGlu = O=C(O)[C@H](CCC(=O)[*:2])N[*:1]; Stearoyl = CCCCCCCCCCCCCCCCCC(=O)*; Palmitoyl = CCCCCCCCCCCCCCCC(=O)*; αMeF = C[C@](N)(Cc1ccccc1)C(=O)O; PEG4 = NCCOCCOCCOCCOCCC(=O)O; PEG2 = NCCOCCOCCC(=O)O; AEEA = NCCOCCOCC(=O)O; Aib = CC(C)(N)C(=O)O

Chain of human glucagon receptor (hGCGR) (P47871 26-477): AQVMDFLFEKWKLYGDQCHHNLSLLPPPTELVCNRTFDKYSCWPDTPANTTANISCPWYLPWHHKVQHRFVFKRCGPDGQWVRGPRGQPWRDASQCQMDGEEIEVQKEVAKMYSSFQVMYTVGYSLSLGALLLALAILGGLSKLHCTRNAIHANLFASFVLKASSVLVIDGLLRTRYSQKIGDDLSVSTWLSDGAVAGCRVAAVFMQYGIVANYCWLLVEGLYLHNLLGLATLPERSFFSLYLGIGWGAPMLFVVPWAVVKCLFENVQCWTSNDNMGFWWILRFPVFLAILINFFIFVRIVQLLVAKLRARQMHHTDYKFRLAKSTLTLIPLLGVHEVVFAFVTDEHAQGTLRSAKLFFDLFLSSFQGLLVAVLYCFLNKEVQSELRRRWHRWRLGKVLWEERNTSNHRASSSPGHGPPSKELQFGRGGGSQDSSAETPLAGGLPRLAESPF

For `CCCCCCCCCCCCCCCC(=O)N[C@@H](CCC(=O)N[C@@H](CCC(=O)NCCOCCOCCOCCOCCC(=O)NCCCC[C@H](NC(=O)[C@H](CO)NC(=O)[C@H](CC(=O)O)NC(=O)[C@H](CC(C)C)NC(=O)[C@@H](NC(=O)[C@H](CCCCN)NC(=O)[C@H](CO)NC(=O)[C@@H](NC(=O)[C@H](CC(=O)O)NC(=O)[C@H](CO)NC(=O)[C@@H](NC(=O)[C@](C)(Cc1ccccc1)NC(=O)[C@H](CO)NC(=O)CNC(=O)[C@H](CCC(N)=O)NC(=O)C(C)(C)NC(=O)[C@@H](N)Cc1c[nH]cn1)[C@@H](C)O)C(C)C)C(c1ccccc1)c1ccccc1)C(=O)N[C@@H](CCCNC(=N)N)C(=O)N[C@@H](C)C(=O)N[C@@H](CCC(N)=O)C(=O)N[C@@H](CC(=O)O)C(=O)N[C@@](C)(Cc1ccccc1)C(=O)N[C@H](C(=O)N[C@@H](CCC(=O)O)C(=O)NC(C)(C)C(=O)N[C@@H](CC(C)C)C(=O)N[C@@H](CCC(=O)O)C(=O)N[C@@H](C)C(=O)NCC(=O)NCC(N)=O)C(C)C)C(=O)O)C(=O)O` [Peptide 43] (H-H[Aib]QGS[αMeF]TSDVSK[Dip]LDSK([PEG4-γGlu-γGlu-Palmitoyl])RAQD[αMeF]VE[Aib]LEAGG-NH2; N-terminus assumed), the EC50 in data set [1] (setting [8]) amounted to 1.89 pM. Further, the “% Relative Potency Ratio” value in data set [1] (Table 6) amounted to 5.8. Also, the “24 hr % Vehicle Food Intake” value in data set [2] came to 53.2%. In data set [3], this compound yielded a share remaining at 5 min, 3.3 mg/mL of 83%; a share remaining at 10 min, 3.3 mg/mL of 33%; an amount remaining at 0.25 h, 3.3 mg/mL of 29%; an amount remaining at 0.5 h, 3.3 mg/mL of 19%. Besides, in data set [4] (setting [9]), the “GLP-1R KO % glucose change 120 min” value is given as 63.9%. For the same compound, the 50% effective concentration (EC50) in data set [5] (setting [10]) is 5.52 pM. The “WT % glucose change 120 min” value in data set [6] (setting [9]) is on record as −56.0%.
Turning to `CCCCCCCCCCCCCCCCCC(=O)N[C@@H](CCC(=O)N[C@@H](CCC(=O)NCCOCCOCCC(=O)NCCOCCOCCC(=O)NCCCC[C@H](NC(=O)[C@H](CO)NC(=O)[C@H](CC(=O)O)NC(=O)[C@H](CC(C)C)NC(=O)[C@@H](NC(=O)[C@H](CCCCN)NC(=O)[C@H](CO)NC(=O)[C@@H](NC(=O)[C@H](CC(=O)O)NC(=O)[C@H](CO)NC(=O)[C@@H](NC(=O)[C@](C)(Cc1ccccc1)NC(=O)[C@H](CO)NC(=O)CNC(=O)[C@H](CCC(N)=O)NC(=O)[C@H](CO)NC(=O)[C@@H](N)Cc1c[nH]cn1)[C@@H](C)O)C(C)C)C(c1ccccc1)c1ccccc1)C(=O)N[C@@H](C)C(=O)N[C@@H](C)C(=O)N[C@@H](CCC(N)=O)C(=O)N[C@@H](CC(=O)O)C(=O)N[C@@](C)(Cc1ccccc1)C(=O)N[C@H](C(=O)N[C@@H](CCC(=O)O)C(=O)NC(C)(C)C(=O)N[C@H](C(=O)N[C@@H](C)C(=O)N[C@@H](CC(N)=O)C(=O)N[C@H](C(N)=O)[C@@H](C)O)[C@@H](C)CC)C(C)C)C(=O)O)C(=O)O` [Peptide 49] (H-HSQGS[αMeF]TSDVSK[Dip]LDSK([PEG2-PEG2-γGlu-γGlu-Stearoyl])AAQD[αMeF]VE[Aib]IANT-NH2; N-terminus assumed), the EC50 in data set [1] (setting [8]) was determined as 1.74 pM. The “% Relative Potency Ratio” value in data set [1] (Table 6) was found to be 2.0. The “24 hr % Vehicle Food Intake” value in data set [2] is recorded as 69.2%. In data set [3], this compound gave a fraction remaining at 5 min, 3.3 mg/mL of 97%; a fraction remaining at 10 min, 3.3 mg/mL of 96%; a share remaining at 0.25 h, 3.3 mg/mL of 95%; an amount remaining at 0.5 h, 3.3 mg/mL of 90%. Besides, the “GLP-1R KO % glucose change 120 min” value in data set [4] (setting [11]) turned out to be 193.3%. For the same compound, the “GLP-1R KO % glucose change 120 min” value in data set [4] (setting [12]) was 154.3%. For the same compound, the 50% effective concentration (EC50) in data set [5] (setting [10]) was found to be 1.73 pM. For the same compound, the “WT % glucose change 120 min” value in data set [6] (setting [11]) is reported as −1.2%. Besides, the “WT % glucose change 120 min” value in data set [6] (setting [12]) is 16.8%.
In the case of `CC[C@H](C)[C@H](NC(=O)[C@H](Cc1c[nH]c2ccccc12)NC(=O)[C@H](CCCCNC(=O)COCCOCCNC(=O)COCCOCCNC(=O)CC[C@H](NC(=O)CCCCCCCCCCCCCCCCCCC(=O)O)C(=O)O)NC(=O)[C@@H](NC(=O)[C@H](Cc1ccccc1)NC(=O)[C@H](CC(=O)O)NC(=O)[C@H](CCC(N)=O)NC(=O)[C@H](C)NC(=O)[C@H](C)NC(=O)[C@H](CCCNC(=N)N)NC(=O)[C@H](CO)NC(=O)[C@H](CC(=O)O)NC(=O)[C@H](CC(C)C)NC(=O)[C@](C)(Cc1ccccc1)NC(=O)[C@H](CCCCN)NC(=O)[C@H](CO)NC(=O)[C@@H](NC(=O)[C@H](CC(=O)O)NC(=O)[C@H](CO)NC(=O)[C@@H](NC(=O)[C@](C)(Cc1ccccc1)NC(=O)[C@H](CO)NC(=O)CNC(=O)[C@H](Cc1c[nH]cn1)NC(=O)C(C)(C)NC(=O)[C@@H](N)Cc1c[nH]cn1)[C@@H](C)O)C(C)C)C(C)C)C(=O)N[C@@H](C)C(=O)N[C@@H](CC(N)=O)C(=O)N[C@H](C(N)=O)[C@@H](C)O` [Peptide 367] (H-H[Aib]HGS[αMeF]TSDVSK[αMeF]LDSRAAQDFVK([AEEA-AEEA-γGlu-C20 diacid])WIANT-NH2; N-terminus assumed), in data set [1], the “% Relative Potency Ratio” value is on record as 1.0. The concentration giving a half-maximal response (EC50) in data set [1] (cAMP, CHO cells, 0.1% BSA) was found to be 139 pM. In data set [7], this compound yielded a fraction remaining at 0.25 h, 125 µM of 0% and an amount remaining at 0.5 h, 125 µM of 0%. The concentration for a half-maximal effect (EC50) in data set [5] (cAMP, CHO cells, 0.1% BSA) came out at 72.4 pM.

Source of the values: US20250353891A1 (MEDIMMUNE LIMITED, priority 2022, published 2025).
